Source: PubChem BioAssay (NCI)
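96-well plates; 48 h exposure; 5 concentrations. Endpoints by linear interpolation between flanking doses. Not reached: highest tested concentration assigned. At the GI50, growth is halved. Definition used: TGI = concentration required for complete inhibition of growth.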

What was measured:
Experiment in all cases: growth of human tumour cells (NCI), 48 h
NCI-H23 lung = tested on: NCI-H23 lung
COLO 205 colon = tested on: COLO 205 colon
OVCAR-5 ovarian = tested on: OVCAR-5 ovarian
HCT-116 colon = tested on: HCT-116 colon
SF-295 CNS = tested on: SF-295 CNS
UACC-257 melanoma = tested on: UACC-257 melanoma
SNB-75 CNS = tested on: SNB-75 CNS
ACHN renal = tested on: ACHN renal
HOP-92 NSCLC = tested on: HOP-92 NSCLC
SR leukemia = tested on: SR leukemia

COc1ccccc1NC(=O)CC(=O)n1nc(C)c(N=Nc2ccccc2C(=O)O)c1C
TGI (NCI-H23 lung): > 100 µM
TGI (COLO 205 colon): > 100 µM
TGI (OVCAR-5 ovarian): > 100 µM
TGI (HCT-116 colon): > 100 µM
TGI (SF-295 CNS): > 100 µM
TGI (UACC-257 melanoma): > 100 µM
TGI (SNB-75 CNS): > 100 µM

O=c1cc(-c2cccc(O)c2)[nH]c2cc3c(cc12)OCO3
TGI (NCI-H23 lung): > 100 µM
TGI (ACHN renal): > 100 µM
TGI (COLO 205 colon): 9.32 µM
TGI (OVCAR-5 ovarian): > 100 µM
TGI (HCT-116 colon): > 100 µM
TGI (SF-295 CNS): > 100 µM
TGI (UACC-257 melanoma): > 100 µM
TGI (SNB-75 CNS): 20.5 µM

Cc1cnc(NC(=O)C(Cc2ccccc2)NC(=O)c2ccccc2)s1 (stereo not given)
GI50 (NCI-H23 lung): 3.83 µM
TGI (NCI-H23 lung): 23.8 µM
GI50 (ACHN renal): 3.49 µM
TGI (ACHN renal): 16.9 µM
GI50 (COLO 205 colon): 13.5 µM
TGI (COLO 205 colon): 29.5 µM
GI50 (OVCAR-5 ovarian): 25.3 µM
TGI (OVCAR-5 ovarian): 63.7 µM
GI50 (HCT-116 colon): 2.96 µM
TGI (HCT-116 colon): 11.9 µM
GI50 (HOP-92 NSCLC): 29.9 µM
TGI (HOP-92 NSCLC): > 100 µM
GI50 (UACC-257 melanoma): 1.14 µM
TGI (UACC-257 melanoma): 3.16 µM
GI50 (SNB-75 CNS): 6.53 µM
TGI (SNB-75 CNS): 27.7 µM
GI50 (SR leukemia): 2.78 µM
TGI (SR leukemia): 26.6 µM

CC(=O)NC1=C(NCC(C)(C)C)C(=O)c2ccccc2C1=O
TGI (NCI-H23 lung): > 100 µM
TGI (ACHN renal): 74.5 µM
TGI (COLO 205 colon): > 100 µM
TGI (HCT-116 colon): > 100 µM
TGI (SF-295 CNS): > 100 µM
TGI (UACC-257 melanoma): > 100 µM
TGI (SNB-75 CNS): > 100 µM
TGI (SR leukemia): > 100 µM

CCOC(=O)C(Sc1ccccc1)c1c(OC)cc(=O)oc1/C=[N+](/[O-])c1ccc(N(C)C)cc1 (stereo not given)
TGI (NCI-H23 lung): 78.5 µM
TGI (COLO 205 colon): 45.4 µM
TGI (OVCAR-5 ovarian): 83.1 µM
TGI (SF-295 CNS): 67 µM
TGI (UACC-257 melanoma): 28.7 µM
TGI (SNB-75 CNS): 76.4 µM

CC[C@@]12CCCN3CC[C@]4(c5cccc(OC)c5N(C(C)=O)[C@@H]4CC1)[C@H]32
TGI (NCI-H23 lung): > 100 µM
TGI (ACHN renal): > 100 µM
TGI (COLO 205 colon): > 100 µM
TGI (OVCAR-5 ovarian): > 100 µM
TGI (HCT-116 colon): > 100 µM
TGI (SF-295 CNS): > 100 µM
TGI (HOP-92 NSCLC): > 100 µM
TGI (UACC-257 melanoma): > 100 µM
TGI (SR leukemia): 55.9 µM

C/C(CCn1[nH]c(=O)ccc1=O)=N\O
TGI (NCI-H23 lung): > 100 µM
TGI (ACHN renal): > 100 µM
TGI (OVCAR-5 ovarian): > 100 µM
TGI (HCT-116 colon): > 100 µM
TGI (SF-295 CNS): > 100 µM
TGI (HOP-92 NSCLC): > 100 µM
TGI (UACC-257 melanoma): > 100 µM
TGI (SNB-75 CNS): > 100 µM
TGI (SR leukemia): > 100 µM

CSc1ccccc1C#C/C=C\C#Cc1ccccc1N1CCCC1=O
GI50 (NCI-H23 lung): > 12.7 µM
TGI (NCI-H23 lung): > 50 µM
GI50 (ACHN renal): > 22.9 µM
TGI (ACHN renal): > 50 µM
TGI (COLO 205 colon): > 12.6 µM
GI50 (OVCAR-5 ovarian): > 24.2 µM
TGI (OVCAR-5 ovarian): > 50 µM
TGI (HCT-116 colon): > 50 µM
GI50 (SF-295 CNS): > 50 µM
TGI (SF-295 CNS): > 50 µM
TGI (HOP-92 NSCLC): > 50 µM
GI50 (UACC-257 melanoma): > 12.5 µM
TGI (UACC-257 melanoma): > 50 µM
GI50 (SNB-75 CNS): > 10.8 µM
TGI (SNB-75 CNS): > 50 µM

COC(=O)[C@@]12C3=NO[C@]1(C(=O)OC)C(O[Si](C)(C)C(C)(C)C)[C@H]1OC(C)(C)O[C@H]1[C@@H]2C(OCc1ccccc1)CC3 (stereo not given in full)
TGI (NCI-H23 lung): > 100 µM
TGI (ACHN renal): 28 µM
TGI (COLO 205 colon): > 100 µM
TGI (HCT-116 colon): > 100 µM
TGI (SF-295 CNS): > 100 µM
TGI (HOP-92 NSCLC): 22.6 µM
TGI (SNB-75 CNS): 58 µM

COc1c2ccoc2c(/C=C/C=O)c2oc(-c3ccccc3)cc(=O)c12
GI50 (NCI-H23 lung): 2.44 µM
TGI (NCI-H23 lung): 8.08 µM
GI50 (ACHN renal): 20.8 µM
TGI (ACHN renal): > 100 µM
GI50 (COLO 205 colon): 27.7 µM
TGI (COLO 205 colon): > 100 µM
GI50 (OVCAR-5 ovarian): 22.3 µM
TGI (OVCAR-5 ovarian): 63.7 µM
GI50 (HCT-116 colon): 1.7 µM
TGI (HCT-116 colon): 4.73 µM
GI50 (SF-295 CNS): 13.6 µM
TGI (SF-295 CNS): 97.9 µM
GI50 (HOP-92 NSCLC): 11.5 µM
TGI (HOP-92 NSCLC): > 100 µM
GI50 (UACC-257 melanoma): 11.5 µM
TGI (UACC-257 melanoma): 24.2 µM
GI50 (SNB-75 CNS): 8.3 µM
TGI (SNB-75 CNS): 67.1 µM
